From the NIST ThermoML archive (doi:10.1016/j.fluid.2013.07.060)
Where “and” joins values, the source holds several entries; their conditions need not be identical. Identical values can stand only once.

How the values were obtained:
[1] = 101.33 kPa, Liquid, Capillary tube (Ostwald / Ubbelohde) method
[2] = xn = mol fraction of the nth substance listed; conditions: 101 kPa, Liquid; for viscosity: Capillary tube (Ostwald / Ubbelohde) method; for mass density: Vibrating tube method

CCCCCC [hexane]
[1]
Conditions	viscosity [mPa·s]
298.2 K	0.2937
303.16 K	0.2798
308.13 K	0.2669

CCCCCC [hexane] + FC(F)(F)C(F)(F)C(F)(F)C(F)(F)C(F)(F)C(F)(F)F
[2], x2 = 0
Conditions	mass density [kg/m3]	viscosity [mPa·s]
298 K	655	0.294
303 K	–	0.28
308 K	–	0.267

FC(F)(F)C(F)(F)C(F)(F)C(F)(F)C(F)(F)C(F)(F)F [perfluorohexane] + CCCCCC
[2]
Conditions	mass density, x1 = 0.25 [kg/m3]	mass density, x1 = 0.5 [kg/m3]	mass density, x1 = 0.75 [kg/m3]	mass density, x1 = 1 [kg/m3]	viscosity, x1 = 0.243 [mPa·s]	viscosity, x1 = 0.5	viscosity, x1 = 0.705 [mPa·s]	viscosity, x1 = 0.727 [mPa·s]	viscosity, x1 = 0.902 [mPa·s]	viscosity, x1 = 1 [mPa·s]
298 K	956	1207	1457	1672	0.341	0.408 mPa·s and 0.407 mPa·s	0.458	0.468	0.556	0.635
303 K	–	–	–	–	0.319	0.375 mPa·s	0.428	0.438	0.52	0.589
308 K	–	–	–	–	0.299	0.35 mPa·s and 0.352 mPa·s	0.401	0.41	0.483	0.548
